Biological target: T1, Human type-X sPLA2 (Homo sapiens, UniProt O15496)
T1 construct: made in house; host or cells: CHO cells, stably transfected with a pSVL expression vector; culture supernatant used as the enzyme source
T1 sequence (O15496 43-165): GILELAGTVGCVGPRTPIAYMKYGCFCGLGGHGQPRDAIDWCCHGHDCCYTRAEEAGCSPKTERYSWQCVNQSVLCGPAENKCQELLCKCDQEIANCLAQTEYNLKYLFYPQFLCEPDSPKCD
Experiment: type-X sPLA2 inhibition test (chromogenic assay, diheptanoylthio PC)
Format: biochemical
Conditions: diheptanoylthio PC 1 mM, Triton X-100 0.3 mM, 30 min at 40° C., absorbance at 405 nm
From the text: cDNA sequence encoding human type-X sPLA2 (Cupillard et al., J. Biol. Chem, 1997, 272, 15745-15752) was inserted into the downstream region of the promoter of pSVL SV40 Late Promoter Expression Vector (Amersham Pharmacia Biotech Inc.) that is an expression vector for mammalian cells. The obtained expression vector was transfected into the host CHO cells with a LipofectAMINE reagent (Gibco BRL Inc.) according to the manufacture's instruction to obtain the CHO cells stably expressing human type-X sPLA2. The transfected cell was cultured in A-MEM medium containing 10% fetal calf serum for 3 days and its culture supernatant was used for the measurement of each enzyme activity.
In order to identify and evaluate an inhibitor of type-X sPLA2, the following chromogenic assay is utilized. This assay has been applied for high volume screening using a 96-well microtiterplate. A general explanation for this assay is described in “Analysis of Human Synovial Fluid Phospholipase A2 on Short Chain Phosphatidylcholine-Mixed Micelles: Development of a Spectrophotometric Assay Suitable for a Micortiterplate Reader” (Analytical Biochemistry, 204, pp 190-197, 1992 by Laure. J. Reynolds. Lori L. Hughes and Edward A. Dennis.
Human type-X sPLA2 was incubated (30 min at 40° C. (15 μl/well)) with diheptanoylthio PC (1 mM) in the presence of Triton X-100 (0.3 mM) and 5,5′-dithiobis(2-nitrobenzoic acid) (125 μM) in Tris-HCl buffer (25 mM, pH 7.5) containing CaCl2 (10 mM), KCl (100 mM), and bovine serum albumin (1.0 mg/mL). The changes in the absorbance at 405 nm were measured and the inhibition activities were calculated.

How did the IC50 turn out when CCc1c(C(=O)C(N)=O)c2c(OCC(=O)O)nc(C)cn2c1Cc1cccc(-c2ccccc2)c1 [Compound 1] was run?
Its IC50 is 10 nM.

How did the IC50 turn out when CCc1c(C(=O)C(N)=O)c2c(OCC(=O)O)nc(C)cn2c1Cc1ccccc1Cc1ccccc1 [Compound 2] was run?
Its IC50 is 10 nM.

How did the IC50 turn out when CCc1c(C(=O)C(N)=O)c2c(OCC(=O)O)nc(-c3ccccc3)cn2c1Cc1ccccc1 [Compound 3] was run?
The IC50 was 5 nM.

For CCCc1c(C(=O)C(N)=O)c2c(OCC(=O)O)nc(C)cn2c1Cc1ccccc1 [Compound 4], which IC50 is on record?
Its IC50 is 27 nM.

With CCCc1c(C(=O)C(N)=O)c2c(OCC(=O)O)nc(C)cn2c1CC1CCCCC1 [Compound 5] as the compound, how does the IC50 read?
Its IC50 is 12 nM.

Which IC50 does the source give for CCc1c(C(=O)C(N)=O)c2c(OCC(=O)O)nc(C3CCCCC3)cn2c1Cc1ccccc1 [Compound 16] here?
The IC50 was 7 nM.

How did the IC50 turn out when CCc1c(C(=O)C(N)=O)c2c(OCC(=O)NS(=O)(=O)c3ccccc3)cccc2n1Cc1ccccc1 [Compound 18] was run?
Its IC50 is 16 nM.
